Data set [1] can be described thus: refractive index (Na D-line) (dimensionless). Conditions: 298.15 K; 101.33 kPa; Liquid; Standard Abbe refractometry.
For data set [2] the following is noted: 298.15 K; 101.33 kPa; Liquid; Vibrating tube method.

Numbers after ± are expanded uncertainties.

Regarding `C1CCOC1` [tetrahydrofuran], in data set [1], the refractive index (in general, a measure of how strongly the sample bends light) worked out at 1.4048 ± 0.0004. The mass density (commonly mass per unit of volume) in data set [2] was 882.03 ± 0.1 kg/m3.
Taken in the same sequence, the figures for `C1COCCO1` [1,4-dioxane] were 1.4202 ± 0.0004 and 1028.12 ± 0.11 kg/m3.
As to `CC(C)=O` [acetone], the refractive index in data set [1] amounted to 1.3563 ± 0.0004. Further, the mass density in data set [2] is 784.65 ± 0.12 kg/m3.

The record behind these values is the NIST ThermoML archive (doi:10.1016/j.tca.2010.07.017).
